According to patent publication US20210139484A1, “DIHYDROISOQUINOLINE-2(1H)-CARBOXAMIDE AND RELATED COMPOUNDS AND THEIR USE IN TREATING MEDICAL CONDITIONS” (GOSSAMER BIO SERVICES, INC., priority 2018, published 2021):

What follows are compounds tested against T1, human HPK1 protein (Homo sapiens, UniProt Q92918) (assay: Human HPK1 protein TR-FRET assay). Details: 1 mM ATP, Table 20.
T1 construct: recombinant human HPK1 protein (a.a. 1-346) was expressed in Sf9 insect cells; GST (N); purchased Signalchem M23-11G; host or cells: Sf9 insect cells (baculovirus)
T1 sequence (Q92918 1-346): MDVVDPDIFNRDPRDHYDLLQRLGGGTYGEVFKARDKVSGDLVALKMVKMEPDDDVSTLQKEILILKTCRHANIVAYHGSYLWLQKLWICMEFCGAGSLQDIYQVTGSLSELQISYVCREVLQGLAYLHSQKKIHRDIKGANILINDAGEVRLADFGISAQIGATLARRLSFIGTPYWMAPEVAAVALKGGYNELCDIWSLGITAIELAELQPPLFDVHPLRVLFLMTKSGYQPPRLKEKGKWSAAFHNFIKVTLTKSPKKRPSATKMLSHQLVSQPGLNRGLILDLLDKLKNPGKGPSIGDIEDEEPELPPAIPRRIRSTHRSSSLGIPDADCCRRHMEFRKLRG
Assay type: biochemical
In short: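 Read-out was TR-FRET using Eu-labeled anti-phospho-CREB (Ser133) antibody, with the 665/615 nm signal ratio normalised to DMSO-only wells and fitted by a 4-parameter logistic model for IC50. Reactions held 10 nM Sf9-expressed GST-HPK1 (a.a. 1-346), 100 nM CREBtide and 1 mM ATP, run 60 minutes at room temperature, pH 7.5.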

| SMILES | IC50 [nM] |
| --- | --- |
| CC[C@@H]1CN(C(=O)Nc2ccc(CN3CCNCC3)c(C(F)(F)F)c2)Cc2cc(Oc3ccnc4[nH]c(C5CC5)cc34)cnc21 [XIV-64] | < 500 |
| CC[C@@H]1CN(C(=O)Nc2ccc(CN3CCN(CCO)CC3)c(C(F)(F)F)c2)Cc2cc(Oc3ccnc4[nH]c(C5CC5)cc34)cnc21 [XIV-65] | < 500 |
| CC[C@@H]1CN(C(=O)Nc2cnc(O[C@H]3CCN(C)C3)c(C(F)(F)F)c2)Cc2cc(Oc3ccnc4[nH]c(C)cc34)cnc21 [XIV-67] | > 10000 |
| CC[C@@H]1CN(C(=O)Nc2cnc(O[C@@H]3CCN[C@H](C)C3)c(C(F)(F)F)c2)Cc2cc(Oc3ccnc4[nH]c(C)cc34)cnc21 [XIV-69] | < 500 |
| CCC1CN(C(=O)Nc2ccc(CN3CCN(CC)CC3)c(C(F)(F)F)c2)Cc2cc(Oc3ccnc4[nH]c(C5CCOCC5)cc34)cnc21 (stereo not drawn) [XIV-70] | < 500 |
| CC[C@@H]1CN(C(=O)Nc2cnc(O[C@H]3CCN[C@@H](C)C3)c(C(F)(F)F)c2)Cc2cc(Oc3ccnc4[nH]c(C)cc34)cnc21 [XIV-71] | 500 to 5000 |
| CC[C@@H]1CN(C(=O)Nc2cnc(OC3CCN(C)CC3)c(C(F)(F)F)c2)Cc2cc(Oc3ccnc4[nH]c(C5(O)CC5)cc34)cnc21 [XIV-77] | < 500 |
| CCC1CN(C(=O)Nc2ccc(CN3CCN(CC)CC3)c(C(F)(F)F)c2)Cc2cc(Oc3cc(NC(=O)OC)ncc3F)cnc21 (stereo not drawn) [XIV-87] | < 500 |
| CCC1CN(C(=O)Nc2ccc(CN3CCN(CC)CC3)c(C(F)(F)F)c2)Cc2cc(Oc3cc(NC(=O)c4cnn(C)c4)ncc3F)cnc21 (stereo not drawn) [XIV-92] | < 500 |
| Cc1cc2c(Oc3cnc4c(c3)CN(C(=O)Nc3ccc(CN5CCNC6(CC6)C5)c(C(F)(F)F)c3)C[C@H]4C)ccnc2[nH]1 [XIV-94] | < 500 |
| Cc1cc2c(Oc3cnc4c(c3)CN(C(=O)Nc3ccc(CN5C[C@H]6C[C@@H]5CN6C)c(C(F)(F)F)c3)C[C@H]4C)ccnc2[nH]1 [XIV-99] | 500 to 5000 |
| Cc1cc2c(Oc3cnc4c(c3)CN(C(=O)Nc3ccc(CN5CC6CCC(C5)N6)c(C(F)(F)F)c3)C[C@H]4C)ccnc2[nH]1 [XIV-101] | 500 to 5000 |
| CC[C@H]1CN(C(=O)Nc2ccc(CN3CCN(C)CC3)c(C(F)(F)F)c2)Cc2cc(Oc3ccnc4[nH]c(C(=O)N(C)CCO)cc34)cnc21 [XIV-105] | < 500 |
| CC[C@H]1CN(C(=O)Nc2ccc(CN3CCN(C)CC3)c(C(F)(F)F)c2)Cc2cc(Oc3ccnc4[nH]c(C(=O)NCCCO)cc34)cnc21 [XIV-108] | < 500 |
| CC[C@H]1CN(C(=O)Nc2ccc(CN3CCN(C)CC3)c(C(F)(F)F)c2)Cc2cc(Oc3ccnc4[nH]c(C(=O)N5CC[C@H](O)C5)cc34)cnc21 [XIV-109] | < 500 |
| CC[C@H]1CN(C(=O)Nc2ccc(CN3CCN(C)CC3)c(C(F)(F)F)c2)Cc2cc(Oc3ccnc4[nH]c(C(=O)N(C)CCCO)cc34)cnc21 [XIV-111] | < 500 |

| SMILES | IC50 [nM] |
| --- | --- |
| CC[C@H]1CN(C(=O)Nc2ccc(CN3CCNCC3)c(C(F)(F)F)c2)Cc2cc(Oc3ccnc4[nH]c(-c5nnc(C)o5)cc34)cnc21 [XIV-113] | < 500 |
| CC[C@@H]1CN(C(=O)Nc2ccc(CN3CCN(C)CC3)c(C(F)(F)F)c2)Cc2cc(Oc3ccnn4cc(C(=O)N(C)C)nc34)cnc21 [XIV-115] | 5000 to 10000 |
| CC[C@@H]1CN(C(=O)Nc2ccc(CN3CCNCC3)c(C(F)(F)F)c2)Cc2cc(Oc3ccnn4cc(C(=O)N(C)C)nc34)cnc21 [XIV-116] | 5000 to 10000 |
| CC[C@H]1CN(C(=O)Nc2ccc(CN3CCN(C)CC3)c(C(F)(F)F)c2)Cc2cc(Oc3ccnn4cc(C(=O)NC)nc34)cnc21 [XIV-120] | 500 to 5000 |
| CC[C@H]1CN(C(=O)Nc2ccc(CN3CCNCC3)c(C(F)(F)F)c2)Cc2cc(Oc3ccnn4cc(C(=O)N(C)C)cc34)cnc21 [XIV-124] | < 500 |
| CC[C@H]1CN(C(=O)Nc2ccc(CN3CCNCC3)c(C(F)(F)F)c2)Cc2cc(Oc3ccnn4cc(C(=O)NC)cc34)cnc21 [XIV-125] | < 500 |
| CC[C@H]1CN(C(=O)Nc2ccc(CN3CCNCC3)c(C(F)(F)F)c2)Cc2cc(Oc3ncnc4[nH]c(C(=O)N(C)C)cc34)cnc21 [XIV-126] | < 500 |
| CC[C@H]1CN(C(=O)Nc2ccc(CN3CCNCC3)c(C(F)(F)F)c2)Cc2cc(Oc3ncnc4[nH]c(C(=O)NC)cc34)cnc21 [XIV-127] | < 500 |
| CC[C@H]1CN(C(=O)Nc2ccc(CN3CCNCC3)c(C(F)(F)F)c2)Cc2cc(Oc3ccnn4cc(C(=O)NC)nc34)cnc21 [XIV-129] | 500 to 5000 |
| CC[C@H]1CN(C(=O)Nc2ccc(CN3CCNCC3)c(C(F)(F)F)c2)Cc2cc(Oc3ccnc4[nH]c(-c5n[nH]c(=O)o5)cc34)cnc21 [XIV-130] | < 500 |
| CC[C@H]1CN(C(=O)Nc2ccc(CN3CCN(CC)CC3)c(C(F)(F)F)c2)Cc2cc(Oc3ccnc4[nH]c(C(=O)N(C)C)cc34)cnc21 [XIV-131] | < 500 |
| CC[C@H]1CN(C(=O)Nc2ccc(CN3CCNCC3)c(C(F)(F)F)c2)Cc2cc(Oc3ccnc4[nH]c(-c5noc(=O)[nH]5)cc34)cnc21 [XIV-135] | < 500 |
| CC[C@H]1CN(C(=O)Nc2ccc(CN3CCNCC3)c(C(F)(F)F)c2)Cc2cc(Oc3ccnc4[nH]c(-c5noc(C)n5)cc34)cnc21 [XIV-136] | < 500 |
| CC[C@H]1CN(C(=O)Nc2cc(C(F)(F)F)c(CN3CCN(C)CC3)cc2F)Cc2cc(Oc3ccnc4[nH]c(C(=O)N(C)C)cc34)cnc21 [XIV-137] | < 500 |
| CC[C@H]1CN(C(=O)Nc2ccc(CN3CCN(CCF)CC3)c(C(F)(F)F)c2)Cc2cc(Oc3ccnc4[nH]c(C(=O)N(C)C)cc34)cnc21 [XIV-138] | < 500 |

Results, then the compound that gave them:

| IC50 [nM] | SMILES |
| --- | --- |
| < 500 | CC[C@H]1CN(C(=O)Nc2ccc(CN3CCN(C)CC3)c(C(F)(F)F)c2)Cc2cc(Oc3ccnc4[nH]c(C5CC5)cc34)cnc21 [XIV-72] |
| < 500 | CC[C@@H]1CN(C(=O)Nc2ccc(CN3CCN(C)CC3)c(C(F)(F)F)c2)Cc2cc(Oc3ccnc4[nH]c(C5CC5)cc34)cnc21 [XIV-73] |
| < 500 | C[C@@H]1CN(C(=O)Nc2ccc(CN3CCN(C)CC3)c(C(F)(F)F)c2)Cc2cc(Oc3ccnc4[nH]c(CO)cc34)cnc21 [XIV-75] |
| < 500 | CC[C@@H]1CN(C(=O)Nc2ccc(CN3CCN(CC)CC3)c(C(F)(F)F)c2)Cc2cc(Oc3ccnc4[nH]c(C5(O)CC5)cc34)cnc21 [XIV-76] |
| < 500 | C[C@H]1CN(C(=O)Nc2ccc(CN3CCN(C)CC3)c(C(F)(F)F)c2)Cc2cc(Oc3ccnc4[nH]c(CO)cc34)cnc21 [XIV-78] |
| < 500 | CC[C@H]1CN(C(=O)Nc2ccc(CN3CCN(CC)CC3)c(C(F)(F)F)c2)Cc2cc(Oc3ccnc4[nH]c(C5(O)CC5)cc34)cnc21 [XIV-79] |
| < 500 | C[C@H]1CN(C(=O)Nc2ccc(CN3CCN(C)CC3)c(C(F)(F)F)c2)Cc2cc(Oc3ccnc4[nH]c(C5CC5)cc34)cnc21 [XIV-81] |
| < 500 | CC[C@H]1CN(C(=O)Nc2ccc(CN3CCN(C)CC3)c(C(F)(F)F)c2)Cc2cc(Oc3ccnc4[nH]c(C(N)=O)cc34)cnc21 [XIV-84] |
| < 500 | CC[C@H]1CN(C(=O)Nc2ccc(CN3CCN(C)CC3)c(C(F)(F)F)c2)Cc2cc(Oc3ccnc4[nH]c(C(=O)NC)cc34)cnc21 [XIV-85] |
| < 500 | C[C@H]1CN(C(=O)Nc2ccc(CN3CCN(C)CC3)c(C(F)(F)F)c2)Cc2cc(Oc3ccnc4[nH]c(C(N)=O)cc34)cnc21 [XIV-86] |
| < 500 | C[C@H]1CN(C(=O)Nc2ccc(CN3CCN(C)CC3)c(C(F)(F)F)c2)Cc2cc(Oc3c(F)cnc4[nH]c(C5(O)COC5)cc34)cnc21 [XIV-88] |
| < 500 | Cc1cc2c(Oc3cnc4c(c3)CN(C(=O)Nc3ccc(CN5CCN(C)CC5)c(OC(F)(F)F)c3)C[C@H]4C)ccnc2[nH]1 [XIV-89] |
| < 500 | Cc1cc2c(Oc3cnc4c(c3)CN(C(=O)Nc3ccc(CN5CCN(C)CC5)c(C(F)(F)F)c3)C[C@@H]4C)ccnc2[nH]1 [XIV-90] |
| < 500 | Cc1cc2c(Oc3cnc4c(c3)CN(C(=O)Nc3ccc(CN5CCN(C)CC5)c(C(F)(F)F)c3)C[C@H]4C)ccnc2[nH]1 [XIV-91] |
| < 500 | Cc1cc2c(Oc3cnc4c(c3)CN(C(=O)Nc3ccc(CN5CCN(C)CC5)c(OC(F)F)c3)C[C@H]4C)ccnc2[nH]1 [XIV-93] |
| < 500 | CCN1CCN(Cc2ccc(NC(=O)N3Cc4cc(Oc5c(F)cnc6[nH]c(CO)cc56)cnc4[C@@H](C)C3)cc2C(F)(F)F)CC1 [XIV-95] |
| < 500 | C[C@H]1CN(C(=O)Nc2ccc(CN3CCN(C)CC3)c(C(F)(F)F)c2)Cc2cc(Oc3ccnc4[nH]c(C5(O)CC5)cc34)cnc21 [XIV-97] |
| < 500 | CC[C@H]1CN(C(=O)Nc2ccc(CN3CCN(C)CC3)c(C(F)(F)F)c2)Cc2cc(Oc3ccnc4[nH]c(C(=O)N5CCCC5)cc34)cnc21 [XIV-102] |
| < 500 | CC[C@H]1CN(C(=O)Nc2ccc(CN3CCN(C)CC3)c(C(F)(F)F)c2)Cc2cc(Oc3ccnc4[nH]c(-c5nnc(C)o5)cc34)cnc21 [XIV-112] |
| < 500 | CC[C@H]1CN(C(=O)Nc2ccc(CN3CCN(C)CC3)c(C(F)(F)F)c2)Cc2cc(Oc3ccnc4[nH]c(-c5n[nH]c(=O)o5)cc34)cnc21 [XIV-114] |
| < 500 | CC[C@H]1CN(C(=O)Nc2ccc(CN3CCN(C)CC3)c(C(F)(F)F)c2)Cc2cc(Oc3ncnc4[nH]c(C(=O)NC)cc34)cnc21 [XIV-121] |
| < 500 | CC[C@H]1CN(C(=O)Nc2ccc(CN3CCN(C)CC3)c(C(F)(F)F)c2)Cc2cc(Oc3ccnc4[nH]c(-c5noc(=O)[nH]5)cc34)cnc21 [XIV-132] |
| < 500 | CC[C@H]1CN(C(=O)Nc2ccc(CN3CCN(C)CC3)c(C(F)(F)F)c2)Cc2cc(Oc3ccnc4[nH]c(-c5noc(C)n5)cc34)cnc21 [XIV-133] |
